Key:
Test in all cases: relative viability (nuclei count vs DMSO), 5 days (fraction); higher = more cells survive
Shikonin + Linsitinib = compound: CC(C)=CC[C@@H](O)C1=CC(=O)c2c(O)ccc(O)c2C1=O [Shikonin] + C[C@]1(O)C[C@@H](c2nc(-c3ccc4ccc(-c5ccccc5)nc4c3)c3c(N)nccn32)C1 [Linsitinib] (partner 1 µM)
Method in brief: (§1)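 Relative viability equals treated-well nuclei counts divided by vehicle-well nuclei counts. Counts came from 4× images of lung cancer cell lines grown in 1536-well plates for 5 days after pin-tool dosing on the day after seeding. Dosing used one drug alone or a fixed anchor-drug dose plus five library-drug doses (not always all listed) in √10 steps, and values are medians of duplicate plates.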

Shikonin + Dasatinib = compound: CC(C)=CC[C@@H](O)C1=CC(=O)c2c(O)ccc(O)c2C1=O [Shikonin] + Cc1nc(Nc2ncc(C(=O)Nc3c(C)cccc3Cl)s2)cc(N2CCN(CCO)CC2)n1 [Dasatinib] (partner 0.075 µM)
Method in brief: as §1

Shikonin + Navitoclax = compound: CC(C)=CC[C@@H](O)C1=CC(=O)c2c(O)ccc(O)c2C1=O [Shikonin] + CC1(C)CCC(c2ccc(Cl)cc2)=C(CN2CCN(c3ccc(C(=O)NS(=O)(=O)c4ccc(N[C@H](CCN5CCOCC5)CSc5ccccc5)c(S(=O)(=O)C(F)(F)F)c4)cc3)CC2)C1 [Navitoclax] (partner 0.5 µM)
Method in brief: as §1

Shikonin + Palbociclib = compound: CC(C)=CC[C@@H](O)C1=CC(=O)c2c(O)ccc(O)c2C1=O [Shikonin] + CC(=O)c1c(C)c2cnc(Nc3ccc(N4CCNCC4)cn3)nc2n(C2CCCC2)c1=O [Palbociclib] (partner 0.5 µM)
Method in brief: as §1

Shikonin + Trametinib = compound: CC(C)=CC[C@@H](O)C1=CC(=O)c2c(O)ccc(O)c2C1=O [Shikonin] + CC(=O)Nc1cccc(-n2c(=O)n(C3CC3)c(=O)c3c(Nc4ccc(I)cc4F)n(C)c(=O)c(C)c32)c1 [Trametinib] (partner 0.02 µM)
Method in brief: as §1

Cell Line	relative viability (Shikonin + Linsitinib; first compound 0.01 µM)	relative viability (Shikonin + Linsitinib; first compound 0.1 µM)	relative viability (Shikonin + Linsitinib; first compound 0.3162 µM)	relative viability (Shikonin + Linsitinib; first compound 1 µM)	relative viability (Shikonin + Dasatinib; first compound 0.01 µM)	relative viability (Shikonin + Dasatinib; first compound 0.1 µM)	relative viability (Shikonin + Dasatinib; first compound 0.3162 µM)	relative viability (Shikonin + Dasatinib; first compound 1 µM)	relative viability (Shikonin + Navitoclax; first compound 0.01 µM)	relative viability (Shikonin + Navitoclax; first compound 0.1 µM)	relative viability (Shikonin + Navitoclax; first compound 0.3162 µM)	relative viability (Shikonin + Navitoclax; first compound 1 µM)	relative viability (Shikonin + Palbociclib; first compound 0.01 µM)	relative viability (Shikonin + Palbociclib; first compound 0.1 µM)	relative viability (Shikonin + Palbociclib; first compound 0.3162 µM)	relative viability (Shikonin + Palbociclib; first compound 1 µM)	relative viability (Shikonin + Trametinib; first compound 0.01 µM)	relative viability (Shikonin + Trametinib; first compound 0.1 µM)	relative viability (Shikonin + Trametinib; first compound 0.3162 µM)	relative viability (Shikonin + Trametinib; first compound 1 µM)
201T	1.01	1.04	1.08	1.03	0.561	0.661	0.579	0.615	1.2	1.26	1.18	1.19	0.346	0.413	0.331	0.387	0.724	0.777	0.75	0.707
A549	0.59	0.485	0.728	0.637					1.46	1.49	1.35	1.17								
A-427	1.11	1.21	1.19	1.14	0.877	0.801	0.721	0.658	0.931	1.14	0.99	0.983	0.503	0.545	0.528	0.553	0.776	0.816	0.821	0.779
ABC-1	0.968	0.754	0.689	0.647	0.603	0.685	0.552	0.301					0.904	0.592	0.892	0.586				
BEN	1.07	0.962	1.12	1.07	0.302	0.407	0.303	0.386	0.0555	0.0688	0.0568	0.096	0.47	0.465	0.437	0.54	1.13	1.06	1.03	1.19
CAL-12T	0.754	0.815	0.715	0.767	0.557	0.333	0.356	0.302	1.29	1.3	1.32	1.22	0.414	0.451	0.403	0.438	0.346	0.376	0.243	0.28
COR-L23	0.99	0.865	0.917	0.797	0.482	0.49	0.532	0.462	1.13	1.26	1.05	0.908	0.26	0.299	0.306	0.29	0.769	0.685	0.622	0.508
COR-L 105	1.1	0.971	0.845	0.655	0.329	0.329	0.307	0.335	0.9	0.786	0.747	0.768	0.447	0.388	0.483	0.402	0.387	0.445	0.442	0.387
Calu-6	0.984	1.08	0.984	0.972					1.1	1.11	0.981	0.448								
ChaGo-K-1					0.501	0.616	0.56	0.67	0.882	1.4	1.01	1.44	0.977	1.09	0.968	0.968	0.883	0.98	0.903	0.972
EBC-1	0.984	0.857	0.727	1.02					0.366	0.392	0.352	0.254								
EKVX	1.04	0.962	1.29	1.09	0.554	0.442	0.5	0.618	0.828	0.897	1.21	0.903	0.404	0.389	0.413	0.366	0.326	0.336	0.389	0.398
EMC-BAC-2	0.8	0.836	0.839	0.855	0.301	0.322	0.375	0.298	1.13	1.1	1.28	1.22	0.512	0.573	0.538	0.513	0.863	0.947	1	0.851
EPLC-272H	1.18	1.32	1.2	1.17	0.34	0.322	0.315	0.398	1.17	1.07	1.27	1.14	0.373	0.321	0.336	0.282	0.286	0.335	0.265	0.244
H3255	0.999	1.05	1.06	1.08	0.285	0.331	0.325	0.348	0.454	0.695	0.519	0.584	0.316	0.333	0.337	0.303	0.658	0.544	0.613	0.548
HARA	1.1	0.925	1.01	0.925	0.239	0.281	0.299	0.28	1.14	1.13	1.15	1.13	0.262	0.285	0.248	0.248	0.68	0.54	0.893	0.627
HCC-15	0.99	0.906	0.874	0.935	0.637	0.799	0.66	0.65	0.742	0.655	0.784	0.747	0.781	0.676	0.817	0.724	0.389	0.35	0.414	0.418
HCC-44	0.798	0.636	0.685	0.694					1.04	0.909	1.1	1.07	0.979	0.991	0.984	1	1.08	1.01	0.996	1.08
HCC-78	0.499	0.496	0.658	0.56	0.39	0.464	0.363	0.417	0.718	0.964	0.942	0.841	0.459	0.481	0.461	0.413	0.773	0.906	0.828	0.734
HCC-366	0.592	0.852	0.985	0.673	0.629	1.12	0.673	0.706	1.08	1.06	1.09	1.08	0.415	0.4	0.316	0.388	0.359	0.363	0.336	0.451

Cell Line	relative viability (Shikonin + Linsitinib; first compound 0.01 µM)	relative viability (Shikonin + Linsitinib; first compound 0.1 µM)	relative viability (Shikonin + Linsitinib; first compound 0.3162 µM)	relative viability (Shikonin + Linsitinib; first compound 1 µM)	relative viability (Shikonin + Dasatinib; first compound 0.01 µM)	relative viability (Shikonin + Dasatinib; first compound 0.1 µM)	relative viability (Shikonin + Dasatinib; first compound 0.3162 µM)	relative viability (Shikonin + Dasatinib; first compound 1 µM)	relative viability (Shikonin + Navitoclax; first compound 0.01 µM)	relative viability (Shikonin + Navitoclax; first compound 0.1 µM)	relative viability (Shikonin + Navitoclax; first compound 0.3162 µM)	relative viability (Shikonin + Navitoclax; first compound 1 µM)	relative viability (Shikonin + Palbociclib; first compound 0.01 µM)	relative viability (Shikonin + Palbociclib; first compound 0.1 µM)	relative viability (Shikonin + Palbociclib; first compound 0.3162 µM)	relative viability (Shikonin + Palbociclib; first compound 1 µM)	relative viability (Shikonin + Trametinib; first compound 0.01 µM)	relative viability (Shikonin + Trametinib; first compound 0.1 µM)	relative viability (Shikonin + Trametinib; first compound 0.3162 µM)	relative viability (Shikonin + Trametinib; first compound 1 µM)
HCC-827	0.909	1.09	0.999	0.906	0.266	0.357	0.316	0.344	1.02	1.08	0.99	0.998	0.48	0.517	0.518	0.493	0.561	0.496	0.563	0.517
HOP-62	0.994	0.806	0.987	0.807	0.66	0.593	0.701	0.747	1.05	1.15	1.01	1.04	0.471	0.581	0.559	0.447	0.389	0.374	0.394	0.401
IA-LM	0.738	0.473	0.434	0.573					0.879	0.858	0.796	0.654								
LC-2-ad	0.769	0.884	0.833	0.812	0.528	0.586	0.418	0.893	0.493	0.413	0.552	0.465	0.533	0.483	0.441	0.511	0.962	1.02	1.02	0.945
LCLC-97TM1	0.175	0.176	0.173	0.162	0.877	0.848	1.09	0.815	0.46	0.4	0.495	0.277	0.293	0.279	0.279	0.23	0.179	0.237	0.2	0.202
LCLC-103H	1.03	1.21	1.26	1.23	0.499	0.462	0.549	0.586					0.462	0.498	0.521	0.429	0.662	0.683	0.663	0.698
NCI-H358	0.916	0.688	0.857	0.511	0.145	0.189	0.148	0.157					0.139	0.132	0.131	0.131	0.124	0.124	0.121	0.126
NCI-H522					0.901	0.852	1.04	1.16					1.03	1.28	0.936	1.17	0.747	0.747	0.871	0.646
NCI-H596	1.04	0.887	1.16	1.06	0.585	0.59	0.566	0.641	0.936	0.911	0.968	0.907					0.94	0.827	0.841	0.839
NCI-H650	0.975		0.843	0.845	0.462	0.449	0.414	0.464					0.325	0.314	0.334	0.34	0.988	1.19	0.996	0.982
NCI-H661	0.724	0.575	0.656	0.546	0.866	0.856	0.816	0.983					0.405	0.395	0.426	0.4	0.559	0.536	0.505	0.576
NCI-H1299	1	1.03	0.82	0.659					1.03	1.09	1.06	1.05								
NCI-H1563	1.27	1.29	1.23	0.892	0.379	0.435	0.467	0.458												
NCI-H1648													0.282		0.273	0.238	0.422		0.464	0.503
NCI-H1650					0.299	0.336	0.267	0.21	1.3	1.24	1.05	1.07	0.395	0.448	0.247	0.319	0.582	0.492	0.523	0.491
NCI-H1703	0.797	1.3	0.555	0.417					1.12	1.08	0.991	0.19								
NCI-H2170					0.611	0.465	0.651	0.54	0.578	0.511	0.58	0.61	0.392	0.376	0.395	0.422	0.937	0.97	0.959	0.981
NCI-H2342					0.334	0.314	0.295	0.325					0.499	0.465	0.526	0.537	0.902	0.686	0.88	0.843
SW 900					0.5	0.592	0.545	0.634					0.563	0.559	0.547	0.542	0.809	0.934	0.969	0.741

Reference: the supplement of paper PMC10307832
